Data on one compound can be found in patent US20220401564A1 (DANA-FARBER CANCER INSTITUTE, INC., priority 2019, published 2022).

Format in all cases: biochemical
Test [1] concerns the target T1, HDAC9 (Homo sapiens, UniProt Q9UKV0).
T1 construct: purchased Reaction Biology
Nature of the test: HDAC enzymatic assay (Reaction Biology), Class 2A substrate. The settings on record: 10-dose response curve; read-out: Compound IC50 (M), HDAC9. The procedure:
(§1) Compounds 2 and 9 were tested in an enzymatic assay from Reaction Biology® against HDAC isoforms.
(§2) Base Reaction buffer: 50 mM Tris-HCl, pH8.0, 137 mM NaCl, 2.7 mM KCl, and 1 mM MgCl2. Add fresh: 1 mg/ml BSA, 1% DMSO
(§3) Class 2A Substrate (HDAC4, HDAC5, HDAC7, and HDAC9): Boc-Lys(trifluoroacetyl)-AMC
(§4) 1. Delivered 2X enzyme in wells of reaction plate except in the control wells and added buffer to control wells. 2. Delivered compounds in 100% DMSO into the enzyme mixture by Acoustic technology (Echo550; nanoliter range). Spin down and pre-incubation. 3. Delivered 2X Substrate Mixture (Fluorogenic HDAC Substrate and co-factor if applicable) in all reaction wells to initiate the reaction. Spin and shake. 4. Incubated for 30 min for Class 2A, 1 h for HDAC1, 2, 3, and 6, and 2 h for the rest of HDAC isoforms and SIRTs at 30° C. with seal.
(§5) 5. Added Developer with Trichostatin A (or Nicotinamide for SIRTs) to stop the reaction and to generate fluorescent color. 6. The fluorescence that was generated was detected with excitation (Ex) at […] and emission (Em) at 460 nM by the EnVision Multilabel Plate Reader (PerkinElmer®, Santa Clara, Calif., USA).
(§6) IC50 values were derived from a 10-dose response curve. As shown in Tables 1-2, the addition of a linker and CRBN targeting group altered the isoform selectivity of the SAHA-based degrader compounds.

Test [2] addresses T2, HDAC5 (Homo sapiens, UniProt Q9UQL6).
T2 construct: purchased Reaction Biology
The description is as above. To be noted: 10-dose response curve; read-out: Compound IC50 (M), HDAC5. How it is done:
as §1, §2, §3, §4, §5, §6

In test [3] the target is T3, HDAC7 (Homo sapiens, UniProt Q8WUI4).
T3 construct: purchased Reaction Biology
T3 sequence (Q8WUI4 1-952): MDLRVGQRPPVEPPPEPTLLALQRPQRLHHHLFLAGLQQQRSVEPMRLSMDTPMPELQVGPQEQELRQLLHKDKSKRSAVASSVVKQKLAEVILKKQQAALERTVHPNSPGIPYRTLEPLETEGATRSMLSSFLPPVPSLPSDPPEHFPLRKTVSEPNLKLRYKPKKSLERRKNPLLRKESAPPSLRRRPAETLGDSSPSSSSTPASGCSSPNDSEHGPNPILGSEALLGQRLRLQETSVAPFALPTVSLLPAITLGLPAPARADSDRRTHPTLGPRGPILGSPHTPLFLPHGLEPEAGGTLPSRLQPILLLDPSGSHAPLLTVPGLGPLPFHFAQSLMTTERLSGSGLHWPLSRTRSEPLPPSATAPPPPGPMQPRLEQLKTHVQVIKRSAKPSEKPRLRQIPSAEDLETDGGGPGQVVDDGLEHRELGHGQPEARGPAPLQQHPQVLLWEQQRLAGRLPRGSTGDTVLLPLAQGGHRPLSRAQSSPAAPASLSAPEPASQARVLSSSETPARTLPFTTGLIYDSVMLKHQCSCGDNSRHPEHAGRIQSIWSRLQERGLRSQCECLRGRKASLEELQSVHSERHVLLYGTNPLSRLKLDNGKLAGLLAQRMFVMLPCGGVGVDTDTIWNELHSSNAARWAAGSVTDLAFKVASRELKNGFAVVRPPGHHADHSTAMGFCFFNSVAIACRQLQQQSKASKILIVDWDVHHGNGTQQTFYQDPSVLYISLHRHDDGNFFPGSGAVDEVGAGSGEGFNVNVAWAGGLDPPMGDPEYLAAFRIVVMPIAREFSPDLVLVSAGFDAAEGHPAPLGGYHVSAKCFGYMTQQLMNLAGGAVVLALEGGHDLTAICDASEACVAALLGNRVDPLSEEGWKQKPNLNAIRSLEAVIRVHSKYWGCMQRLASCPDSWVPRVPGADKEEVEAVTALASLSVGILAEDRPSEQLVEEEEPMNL
The test is described as above. To be noted: 10-dose response curve; read-out: Compound IC50 (M), HDAC7. The procedure: as §1, §2, §3, §4, §5, §6

Test [4] addresses T4, HDAC4 (Homo sapiens, UniProt P56524).
T4 construct: purchased Reaction Biology
The test is described as above. The settings on record: 10-dose response curve; read-out: Compound IC50 (M), HDAC4. The procedure:
as §1, §2, §3, §4, §5, §6

Test [5] concerns the target HDAC3 (Homo sapiens, UniProt O15379). Briefly: HDAC enzymatic assay (Reaction Biology), fluorogenic substrate. Set-up: purchased Reaction Biology. How it is done: as §1, §2
(§7) Fluorogenic HDAC General Substrate (HDAC1, HDAC2, HDAC3, HDAC6, HDAC10, and HDAC11): 50 μM, Arg-His-Lys-Lys(Ac)-AMC
as §4, §5, §6

The target of test [6] is T5, HDAC8 (Homo sapiens, UniProt Q9BY41).
T5 sequence (Q9BY41 1-377): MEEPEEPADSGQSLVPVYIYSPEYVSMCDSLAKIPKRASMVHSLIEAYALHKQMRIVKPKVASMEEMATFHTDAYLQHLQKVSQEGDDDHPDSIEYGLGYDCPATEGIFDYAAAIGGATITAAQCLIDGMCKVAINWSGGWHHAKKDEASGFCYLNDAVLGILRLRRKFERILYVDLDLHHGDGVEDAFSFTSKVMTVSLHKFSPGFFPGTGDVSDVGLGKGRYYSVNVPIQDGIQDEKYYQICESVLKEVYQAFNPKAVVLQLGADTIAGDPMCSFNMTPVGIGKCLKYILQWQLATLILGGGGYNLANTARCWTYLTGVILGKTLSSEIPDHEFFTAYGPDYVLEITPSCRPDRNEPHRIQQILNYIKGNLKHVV
Nature of the test: HDAC enzymatic assay (Reaction Biology), HDAC8 substrate. Also on record: purchased Reaction Biology. How it is done: as §1, §2
(HDAC8 only substrate: 50 μM, Arg-His-Lys(Ac)-Lys(Ac))-AMC
as §4, §5, §6

Test [7] concerns the target T6, HDAC2 (Homo sapiens, UniProt Q92769).
T6 construct: purchased Reaction Biology
Nature of the test: HDAC enzymatic assay (Reaction Biology), fluorogenic substrate. How it is done:
as §1, §2, §7, §4, §5, §6

The target in test [8] is T7, HDAC1 (Homo sapiens, UniProt Q13547).
T7 construct: purchased Reaction Biology
T7 sequence (Q13547 whole entry): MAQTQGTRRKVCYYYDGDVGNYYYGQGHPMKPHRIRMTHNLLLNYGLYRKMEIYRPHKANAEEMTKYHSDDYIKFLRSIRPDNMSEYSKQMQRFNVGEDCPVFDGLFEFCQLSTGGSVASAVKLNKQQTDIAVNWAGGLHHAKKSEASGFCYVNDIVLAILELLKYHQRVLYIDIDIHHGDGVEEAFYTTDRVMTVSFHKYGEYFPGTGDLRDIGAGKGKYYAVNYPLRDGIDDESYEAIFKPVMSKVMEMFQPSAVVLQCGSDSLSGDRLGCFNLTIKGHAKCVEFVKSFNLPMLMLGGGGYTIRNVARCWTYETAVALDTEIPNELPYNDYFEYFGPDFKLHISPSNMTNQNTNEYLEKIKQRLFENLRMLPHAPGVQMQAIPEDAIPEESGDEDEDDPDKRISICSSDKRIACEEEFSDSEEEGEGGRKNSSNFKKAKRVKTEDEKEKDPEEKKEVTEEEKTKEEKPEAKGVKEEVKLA
The test is described as above. How it is done:
as §1, §2, §7, §4, §5, §6

T6 sequence (Q92769 whole entry): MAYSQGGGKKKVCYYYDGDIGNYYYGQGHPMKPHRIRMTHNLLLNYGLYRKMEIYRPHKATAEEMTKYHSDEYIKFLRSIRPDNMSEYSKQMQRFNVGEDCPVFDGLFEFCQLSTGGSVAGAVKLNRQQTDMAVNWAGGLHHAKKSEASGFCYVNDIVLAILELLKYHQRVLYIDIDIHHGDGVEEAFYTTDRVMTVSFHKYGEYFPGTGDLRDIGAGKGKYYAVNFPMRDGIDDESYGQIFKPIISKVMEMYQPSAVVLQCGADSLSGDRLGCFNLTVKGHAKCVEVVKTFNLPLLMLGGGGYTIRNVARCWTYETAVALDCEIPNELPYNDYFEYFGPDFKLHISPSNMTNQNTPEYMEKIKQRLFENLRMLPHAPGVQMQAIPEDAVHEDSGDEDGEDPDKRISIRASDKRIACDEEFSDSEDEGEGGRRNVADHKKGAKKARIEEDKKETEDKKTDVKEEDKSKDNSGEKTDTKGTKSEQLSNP
Chain of HDAC3 (O15379 whole entry): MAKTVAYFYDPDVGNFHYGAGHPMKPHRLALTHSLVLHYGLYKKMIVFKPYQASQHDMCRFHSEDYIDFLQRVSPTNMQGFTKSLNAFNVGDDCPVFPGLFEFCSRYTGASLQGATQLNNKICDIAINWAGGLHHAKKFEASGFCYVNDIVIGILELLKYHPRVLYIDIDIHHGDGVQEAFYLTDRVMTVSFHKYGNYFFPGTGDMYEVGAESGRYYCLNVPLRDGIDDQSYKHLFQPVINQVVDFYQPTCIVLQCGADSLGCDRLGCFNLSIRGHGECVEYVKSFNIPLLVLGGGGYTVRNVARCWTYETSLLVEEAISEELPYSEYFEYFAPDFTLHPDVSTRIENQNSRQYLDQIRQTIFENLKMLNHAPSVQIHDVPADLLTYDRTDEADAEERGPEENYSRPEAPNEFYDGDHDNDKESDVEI
Chain of HDAC3 (Q9Y618 395-489 partner limits assumed): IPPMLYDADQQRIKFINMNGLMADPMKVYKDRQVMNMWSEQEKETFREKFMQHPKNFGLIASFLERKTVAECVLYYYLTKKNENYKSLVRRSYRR
T2 sequence (Q9UQL6 whole entry): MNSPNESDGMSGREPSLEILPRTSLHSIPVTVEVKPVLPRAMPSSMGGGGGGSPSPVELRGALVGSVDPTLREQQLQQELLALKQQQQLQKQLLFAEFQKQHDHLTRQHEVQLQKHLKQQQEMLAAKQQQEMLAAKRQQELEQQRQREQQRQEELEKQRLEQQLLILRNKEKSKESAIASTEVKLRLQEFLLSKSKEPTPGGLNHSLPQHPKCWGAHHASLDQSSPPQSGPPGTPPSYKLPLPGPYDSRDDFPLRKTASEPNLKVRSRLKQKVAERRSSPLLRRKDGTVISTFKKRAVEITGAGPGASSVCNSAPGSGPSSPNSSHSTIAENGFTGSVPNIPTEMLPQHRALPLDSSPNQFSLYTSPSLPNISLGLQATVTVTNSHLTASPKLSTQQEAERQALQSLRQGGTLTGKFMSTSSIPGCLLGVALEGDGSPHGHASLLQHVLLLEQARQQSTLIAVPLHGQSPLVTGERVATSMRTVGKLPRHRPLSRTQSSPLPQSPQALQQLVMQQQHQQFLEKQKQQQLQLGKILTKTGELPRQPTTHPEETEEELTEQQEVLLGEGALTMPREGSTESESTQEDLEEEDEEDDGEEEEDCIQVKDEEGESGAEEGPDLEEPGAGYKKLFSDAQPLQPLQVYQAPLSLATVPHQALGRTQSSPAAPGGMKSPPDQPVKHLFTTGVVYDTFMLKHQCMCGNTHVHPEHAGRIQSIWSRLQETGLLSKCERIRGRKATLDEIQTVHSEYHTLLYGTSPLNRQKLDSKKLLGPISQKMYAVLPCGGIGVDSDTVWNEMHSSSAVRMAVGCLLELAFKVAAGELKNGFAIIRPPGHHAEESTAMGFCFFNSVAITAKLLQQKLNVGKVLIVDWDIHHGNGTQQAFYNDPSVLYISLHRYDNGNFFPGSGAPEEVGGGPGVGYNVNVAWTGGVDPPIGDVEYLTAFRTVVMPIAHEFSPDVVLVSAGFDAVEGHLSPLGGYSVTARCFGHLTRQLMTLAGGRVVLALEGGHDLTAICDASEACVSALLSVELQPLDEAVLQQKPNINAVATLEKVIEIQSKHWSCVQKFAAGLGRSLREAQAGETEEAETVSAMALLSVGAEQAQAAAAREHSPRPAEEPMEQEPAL
T1 sequence (Q9UKV0 whole entry): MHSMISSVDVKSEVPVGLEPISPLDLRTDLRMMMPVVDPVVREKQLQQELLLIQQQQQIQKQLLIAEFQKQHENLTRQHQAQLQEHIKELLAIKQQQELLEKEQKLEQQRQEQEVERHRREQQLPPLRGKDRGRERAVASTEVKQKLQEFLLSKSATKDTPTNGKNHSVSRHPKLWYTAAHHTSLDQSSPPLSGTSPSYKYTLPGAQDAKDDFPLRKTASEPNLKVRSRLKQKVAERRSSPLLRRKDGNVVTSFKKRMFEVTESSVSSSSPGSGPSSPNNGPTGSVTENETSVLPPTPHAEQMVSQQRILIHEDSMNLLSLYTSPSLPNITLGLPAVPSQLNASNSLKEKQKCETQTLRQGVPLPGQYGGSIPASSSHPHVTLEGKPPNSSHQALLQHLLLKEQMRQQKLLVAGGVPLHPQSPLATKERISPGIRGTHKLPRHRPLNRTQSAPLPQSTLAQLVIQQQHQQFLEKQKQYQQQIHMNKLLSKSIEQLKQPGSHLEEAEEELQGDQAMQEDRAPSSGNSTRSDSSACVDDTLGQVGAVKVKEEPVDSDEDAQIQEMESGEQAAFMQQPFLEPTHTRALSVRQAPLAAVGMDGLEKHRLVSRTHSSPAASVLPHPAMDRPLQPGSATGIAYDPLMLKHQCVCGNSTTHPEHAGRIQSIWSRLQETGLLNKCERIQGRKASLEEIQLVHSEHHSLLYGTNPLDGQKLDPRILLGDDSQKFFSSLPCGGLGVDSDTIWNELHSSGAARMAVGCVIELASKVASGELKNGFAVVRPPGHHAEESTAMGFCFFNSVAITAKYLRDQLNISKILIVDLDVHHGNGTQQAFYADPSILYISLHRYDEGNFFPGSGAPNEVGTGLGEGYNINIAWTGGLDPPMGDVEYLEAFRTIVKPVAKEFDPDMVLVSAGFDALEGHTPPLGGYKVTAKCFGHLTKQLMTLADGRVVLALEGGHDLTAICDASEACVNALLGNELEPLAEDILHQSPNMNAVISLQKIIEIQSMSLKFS
T4 sequence (P56524 whole entry): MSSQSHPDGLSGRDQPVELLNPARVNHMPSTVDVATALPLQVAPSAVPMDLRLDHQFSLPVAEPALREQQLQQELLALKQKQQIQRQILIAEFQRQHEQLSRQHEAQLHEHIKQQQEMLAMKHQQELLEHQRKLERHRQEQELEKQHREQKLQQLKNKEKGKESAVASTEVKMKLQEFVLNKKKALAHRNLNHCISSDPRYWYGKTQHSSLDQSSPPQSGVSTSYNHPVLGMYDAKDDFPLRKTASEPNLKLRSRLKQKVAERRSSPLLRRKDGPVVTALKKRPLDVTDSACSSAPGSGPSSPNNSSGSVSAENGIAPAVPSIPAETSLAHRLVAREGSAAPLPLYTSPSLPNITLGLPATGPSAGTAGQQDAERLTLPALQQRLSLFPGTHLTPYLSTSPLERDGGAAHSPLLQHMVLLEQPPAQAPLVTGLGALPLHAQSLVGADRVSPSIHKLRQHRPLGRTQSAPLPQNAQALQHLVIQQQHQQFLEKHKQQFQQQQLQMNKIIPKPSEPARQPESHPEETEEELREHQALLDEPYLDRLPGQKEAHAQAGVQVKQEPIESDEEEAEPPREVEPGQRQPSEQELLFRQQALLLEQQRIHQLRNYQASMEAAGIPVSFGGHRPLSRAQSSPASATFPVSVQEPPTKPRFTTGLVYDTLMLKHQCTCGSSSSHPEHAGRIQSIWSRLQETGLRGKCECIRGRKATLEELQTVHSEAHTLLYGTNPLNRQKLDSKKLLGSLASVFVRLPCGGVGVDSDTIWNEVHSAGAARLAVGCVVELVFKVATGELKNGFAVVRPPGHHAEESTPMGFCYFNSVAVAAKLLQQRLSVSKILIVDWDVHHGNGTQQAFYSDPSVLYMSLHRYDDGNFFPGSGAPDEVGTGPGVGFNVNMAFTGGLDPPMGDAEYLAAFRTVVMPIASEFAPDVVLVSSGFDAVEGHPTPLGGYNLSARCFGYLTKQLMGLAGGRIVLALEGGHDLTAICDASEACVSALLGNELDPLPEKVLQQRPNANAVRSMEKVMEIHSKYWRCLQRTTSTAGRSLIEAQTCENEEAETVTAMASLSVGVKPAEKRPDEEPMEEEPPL

In general, IC50 refers to the concentration that inhibits the measured activity by half. Take `Cc1ncsc1-c1ccc([C@H](C)NC(=O)[C@@H]2C[C@@H](O)CN2C(=O)[C@@H](NC(=O)CCOCCOCCN(CCc2c[nH]c3ccccc23)Cc2ccc(/C=C/C(=O)NO)cc2)C(C)(C)C)cc1` [Compound 2, (2S,4R)-1-((S)-14-(tert-butyl)-3-(4-((E)-3-(hydroxyamino)-3-oxoprop-1-en-1-yl)benzyl)-1-(1H-indol-3-yl)-12-oxo-6,9-dioxa-3,13-diazapentadecan-15-oyl)-4-hydroxy-N—((S)-1-(4-(4-methylthiazol-5-yl)phenyl)ethyl)pyrrolidine-2-carboxamide]: the IC50 in test [1] is greater than 2e-05 M; in test [2], 2.69e-06 M; in test [3] it was 1.71e-05 M; in test [4], 1.31e-05 M; in test [5] (10-dose response curve, read-out: Compound IC50 (M), HDAC3) it was 5.77e-07 M; in test [6] (10-dose response curve, read-out: Compound IC50 (M), HDAC8), 1.16e-06 M. In addition, the IC50 is 1.03e-06 M in test [7] (10-dose response curve, read-out: Compound IC50 (M), HDAC2) and 4.81e-07 M in test [8] (10-dose response curve, read-out: Compound IC50 (M), HDAC1). Also, in test [5], the “inhibition of HDAC3 deacetylase activity in vitro (in words)” value was “Moderate inhibition”. For the same compound, the “inhibition of HDAC8 deacetylase activity in vitro (in words)” value in test [6] is “Moderate inhibition”. Moreover, the “inhibition of HDAC2 deacetylase activity in vitro (in words)” value in test [7] is reported as “Moderate inhibition”. Also, the “inhibition of HDAC1 deacetylase activity in vitro (in words)” value in test [8] is recorded as “Moderate inhibition”.
